The values below come from ChEMBL document CHEMBL1139006, “Synthesis and in vitro antibiotic activity of 16-membered 9-O-arylalkyloxime macrolides” (2006).

Type in all cases: functional
Test [1] deals with Streptococcus pneumoniae. As to the kind of experiment: Antibacterial activity against Streptococcus pneumoniae ATCC 6301.
The test system of test [2] is Streptococcus pneumoniae. As to the kind of experiment: Antibacterial activity against Streptococcus pneumoniae ATCC 700671.
In test [3] the test system is Streptococcus pneumoniae. As to the kind of experiment: Antibacterial activity against macrolide resistant Streptococcus pneumoniae ATCC 700676.
Test [4] concerns Streptococcus pneumoniae. The test can be described thus: Antibacterial activity against macrolide resistant Streptococcus pneumoniae ATCC 700677.
In test [5] the test system is Streptococcus pneumoniae. The test can be described thus: Antibacterial activity against macrolide resistant Streptococcus pneumoniae ATCC 700905.
The test system of test [6] is Streptococcus pneumoniae. The test can be described thus: Antibacterial activity against macrolide resistant Streptococcus pneumoniae ATCC 700906.
Test [7] deals with Streptococcus pneumoniae. As to the kind of experiment: Antibacterial activity against Streptococcus pneumoniae ATCC 49619.
In test [8] the test system is Staphylococcus aureus. The test can be described thus: Antibacterial activity against Staphylococcus aureus ATCC 6538p.
Test [9] relates to Staphylococcus aureus. The test can be described thus: Antibacterial activity against macrolide resistant Staphylococcus aureus ATCC 33591.
For test [10], the system named is Staphylococcus aureus. As to the kind of experiment: Antibacterial activity against macrolide resistant Staphylococcus aureus ATCC 141541.
The subject of test [11] is Staphylococcus aureus. The test can be described thus: Antibacterial activity against macrolide resistant Staphylococcus aureus ATCC BAA-39.
The test system of test [12] is Staphylococcus aureus. As to the kind of experiment: Antibacterial activity against macrolide resistant Staphylococcus aureus ATCC BAA-44.
For test [13], the system named is Staphylococcus aureus. As to the kind of experiment: Antibacterial activity against Staphylococcus aureus ATCC 29213.
The test system of test [14] is Staphylococcus epidermidis. The test can be described thus: Antibacterial activity against Staphylococcus epidermidis ATCC 12228.
The test system of test [15] is Enterococcus faecalis. The test can be described thus: Antibacterial activity against Enterococcus faecalis ATCC 51575.

≈ marks a conversion by molar mass, not a printed value. Some results are limits rather than exact numbers.

`CC[C@H]1OC(=O)C[C@@H](O)[C@H](C)[C@@H](O[C@@H]2O[C@H](C)[C@@H](O)[C@H](N(C)C)[C@@H]2O)[C@@H](CCN2CC(C)CC(C)C2)C[C@@H](C)C(=N/O)/C=C/C(C)=C/C1CO` (stereo not given in full): the MIC is 0.78 µg/mL (≈ 1.1 µM) in test [1]; 1.56 µg/mL (≈ 2.2 µM) in test [2]; 6.25 µg/mL (≈ 8.8 µM) in test [3]; > 12.5 µg/mL in test [4]; 6.25 µg/mL (≈ 8.8 µM) in test [5]; > 12.5 µg/mL in test [6]. Moreover, the MIC in test [7] was 1.56 µg/mL (≈ 2.2 µM); in [8], 3.12 µg/mL (≈ 4.39 µM); in [9] it was > 12.5 µg/mL; in [10] it was > 12.5 µg/mL; in [11], > 12.5 µg/mL; in test [12], > 12.5 µg/mL. The minimal inhibitory concentration (MIC) in test [13] was 12.5 µg/mL (≈ 17.6 µM); in [14] it was > 12.5 µg/mL; in test [15] it was > 12.5 µg/mL.

For `CC[C@H]1OC(=O)C[C@@H](O)[C@H](C)[C@@H](O[C@@H]2O[C@H](C)[C@@H](O)[C@H](N(C)C)[C@@H]2O)[C@@H](CCN2CC(C)CC(C)C2)C[C@@H](C)C(=O)/C=C/C(C)=C/C1CO` (stereo not given in full), the MIC is 0.39 µg/mL (≈ 0.561 µM) in test [1]; 0.78 µg/mL (≈ 1.12 µM) in test [2]; 1.56 µg/mL (≈ 2.24 µM) in test [3]; > 12.5 µg/mL in test [4]; 1.56 µg/mL (≈ 2.24 µM) in test [5]; > 12.5 µg/mL in test [6]. In addition, the MIC in test [7] is 0.78 µg/mL (≈ 1.12 µM); in test [8], 0.39 µg/mL (≈ 0.561 µM); in [9], > 12.5 µg/mL; in [10], 1.56 µg/mL (≈ 2.24 µM); in test [11], > 12.5 µg/mL; in test [12], > 12.5 µg/mL. For the same compound, the MIC in test [13] is 1.56 µg/mL (≈ 2.24 µM); in [14] it was 0.78 µg/mL (≈ 1.12 µM); in test [15], > 12.5 µg/mL.

On to `CC[C@H]1OC(=O)C[C@@H](O)[C@H](C)[C@@H](O[C@@H]2O[C@H](C)[C@@H](O)[C@H](N(C)C)[C@@H]2O)[C@@H](CCN2CC(C)CC(C)C2)C[C@@H](C)C(=N\OCCCc2ccc3ncccc3c2)/C=C/C(C)=C/C1CO` (stereo not given in full), for which the MIC in [1] is 6.25 µg/mL (≈ 7.11 µM); in test [2], 6.25 µg/mL (≈ 7.11 µM); in [3] it was 12.5 µg/mL (≈ 14.2 µM); in [4], > 12.5 µg/mL; in test [5], 12.5 µg/mL (≈ 14.2 µM); in [6] it was > 12.5 µg/mL. Besides, the MIC in [7] was 6.25 µg/mL (≈ 7.11 µM); in [8] it was > 12.5 µg/mL; in [9], > 12.5 µg/mL; in [10], > 12.5 µg/mL; in test [11], > 12.5 µg/mL; in [12] it was > 12.5 µg/mL. Further, the MIC in test [13], in [14] and in test [15] was > 12.5 µg/mL in each case.

As for `CC[C@H]1OC(=O)C[C@@H](O)[C@H](C)[C@@H](O[C@@H]2O[C@H](C)[C@@H](O)[C@H](N(C)C)[C@@H]2O)[C@@H](CCN2CC(C)CC(C)C2)C[C@@H](C)C(=N\OCCCCc2ccc3ccccc3c2)/C=C/C(C)=C/C1CO` (stereo not given in full), the MIC is 6.25 µg/mL (≈ 7 µM) in [1]; 12.5 µg/mL (≈ 14 µM) in test [2]; > 12.5 µg/mL in test [3]; > 12.5 µg/mL in test [4]; 12.5 µg/mL (≈ 14 µM) in test [5]; > 12.5 µg/mL in [6]. For the same compound, the MIC in [7] is 12.5 µg/mL (≈ 14 µM); in test [8], > 12.5 µg/mL; in test [9] it was > 12.5 µg/mL; in test [10], > 12.5 µg/mL; in test [11], > 12.5 µg/mL; in [12], > 12.5 µg/mL. Besides, the MIC in test [13], in test [14] and in [15] was > 12.5 µg/mL in each case.

For the compound `CC[C@H]1OC(=O)C[C@@H](O)[C@H](C)[C@@H](O[C@@H]2O[C@H](C)[C@@H](O)[C@H](N(C)C)[C@@H]2O)[C@@H](CCN2CC(C)CC(C)C2)C[C@@H](C)C(=N\OCCOc2ccccc2)/C=C/C(C)=C/C1CO` (stereo not given in full), the MIC in test [1] is 0.2 µg/mL (≈ 0.241 µM); in test [2], 0.39 µg/mL (≈ 0.47 µM); in test [3], 0.78 µg/mL (≈ 0.94 µM); in test [4], > 12.5 µg/mL; in test [5], 0.39 µg/mL (≈ 0.47 µM); in test [6], > 12.5 µg/mL. The MIC in [7] was 0.39 µg/mL (≈ 0.47 µM); in test [8], 0.78 µg/mL (≈ 0.94 µM); in test [9], > 12.5 µg/mL; in test [10], 6.25 µg/mL (≈ 7.53 µM); in test [11], > 12.5 µg/mL; in test [12], > 12.5 µg/mL. The MIC in test [13] is 6.25 µg/mL (≈ 7.53 µM); in test [14], 6.25 µg/mL (≈ 7.53 µM); in test [15], > 12.5 µg/mL.

In the case of `CC[C@H]1OC(=O)C[C@@H](O)[C@H](C)[C@@H](O[C@@H]2O[C@H](C)[C@@H](O)[C@H](N(C)C)[C@@H]2O)[C@@H](CCN2CC(C)CC(C)C2)C[C@@H](C)C(=N\OCc2ccc(F)cc2)/C=C/C(C)=C/C1CO` (stereo not given in full), the MIC is 0.39 µg/mL (≈ 0.477 µM) in [1]; 0.39 µg/mL (≈ 0.477 µM) in test [2]; 0.39 µg/mL (≈ 0.477 µM) in [3]; > 12.5 µg/mL in test [4]; 0.39 µg/mL (≈ 0.477 µM) in test [5]; > 12.5 µg/mL in [6]. In addition, the MIC in [7] is 0.39 µg/mL (≈ 0.477 µM); in test [8] it was 0.78 µg/mL (≈ 0.953 µM); in test [9], > 12.5 µg/mL; in test [10], 3.12 µg/mL (≈ 3.81 µM); in test [11], > 12.5 µg/mL; in test [12], > 12.5 µg/mL. The MIC in test [13] is 3.12 µg/mL (≈ 3.81 µM); in test [14] it was 3.12 µg/mL (≈ 3.81 µM); in test [15], > 12.5 µg/mL.

Take `CC[C@H]1OC(=O)C[C@@H](O)[C@H](C)[C@@H](O[C@@H]2O[C@H](C)[C@@H](O)[C@H](N(C)C)[C@@H]2O)[C@@H](CCN2CC(C)CC(C)C2)C[C@@H](C)C(=N\OCC(=O)N2CCN(c3ccccc3)CC2)/C=C/C(C)=C/C1CO` (stereo not given in full): the MIC is 0.049 µg/mL (≈ 0.0537 µM) in test [1]; 0.098 µg/mL (≈ 0.107 µM) in [2]; 4.56 µg/mL (≈ 5 µM) in [3]; > 12.5 µg/mL in [4]; 0.78 µg/mL (≈ 0.855 µM) in [5]; > 12.5 µg/mL in test [6]. Further, the MIC in [7] was 0.049 µg/mL (≈ 0.0537 µM); in test [8], 0.39 µg/mL (≈ 0.428 µM); in [9] it was > 12.5 µg/mL; in test [10] it was 3.12 µg/mL (≈ 3.42 µM); in test [11], > 12.5 µg/mL; in test [12], > 12.5 µg/mL. For the same compound, the MIC is 1.56 µg/mL (≈ 1.71 µM) in test [13], 0.78 µg/mL (≈ 0.855 µM) in test [14] and > 12.5 µg/mL in test [15].

As for `CC[C@H]1OC(=O)C[C@@H](O)[C@H](C)[C@@H](O[C@@H]2O[C@H](C)[C@@H](O)[C@H](N(C)C)[C@@H]2O)[C@@H](CCN2CC(C)CC(C)C2)C[C@@H](C)C(=N/OCCCCc2ccc3ncccc3c2)/C=C/C(C)=C/C1CO` (stereo not given in full), the minimal inhibitory concentration (MIC) in test [1] is 1.56 µg/mL (≈ 1.75 µM); in test [2], 3.12 µg/mL (≈ 3.49 µM); in test [3], 6.25 µg/mL (≈ 7 µM); in test [4], > 12.5 µg/mL; in [5] it was 6.25 µg/mL (≈ 7 µM); in test [6] it was > 12.5 µg/mL. The minimum inhibitory concentration (MIC) in test [7] is 6.25 µg/mL (≈ 7 µM); in test [8] it was 6.25 µg/mL (≈ 7 µM); in test [9], > 12.5 µg/mL; in test [10] it was > 12.5 µg/mL; in [11], > 12.5 µg/mL; in test [12] it was > 12.5 µg/mL. Further, the MIC in [13] is 12.5 µg/mL (≈ 14 µM); in test [14], > 12.5 µg/mL; in [15] it was > 12.5 µg/mL.

Take `CC[C@H]1OC(=O)C[C@@H](O)[C@H](C)[C@@H](O[C@@H]2O[C@H](C)[C@@H](O)[C@H](N(C)C)[C@H]2O)[C@@H](CCN2C[C@H](C)C[C@H](C)C2)C[C@@H](C)C(=O)/C=C/C(C)=C/[C@@H]1CO[C@@H]1O[C@H](C)[C@@H](O)[C@@H](OC)[C@H]1OC` [TILMICOSIN]: the MIC in test [1] is 0.39 µg/mL (≈ 0.449 µM); in [2], 0.78 µg/mL (≈ 0.897 µM); in test [3], 0.78 µg/mL (≈ 0.897 µM); in [4], 6.25 µg/mL (≈ 7.19 µM); in [5], 1.56 µg/mL (≈ 1.79 µM); in test [6] it was > 12.5 µg/mL. Further, the MIC in [7] was 1.56 µg/mL (≈ 1.79 µM); in test [8], 0.098 µg/mL (≈ 0.113 µM); in test [9], > 12.5 µg/mL; in [10], 0.39 µg/mL (≈ 0.449 µM); in test [11], > 12.5 µg/mL; in test [12], > 12.5 µg/mL. The MIC in [13] is 0.2 µg/mL (≈ 0.23 µM); in test [14], 0.098 µg/mL (≈ 0.113 µM); in [15] it was > 12.5 µg/mL.
